By GI50 is commonly meant the concentration at which growth is held to half of that of the control.

What all share (assay): DTP human tumour cell line panel, 48 h
Experiment [1] relates to A549.
Experiment [2] deals with CAKI-1.
Experiment [3] relates to DMS-273.
The test system of experiment [4] is EKVX.
Experiment [5] concerns HCC 2998.
Experiment [6] relates to HCT-15.
Experiment [7] concerns HOP-92.
Experiment [8] has as its system M14.
The test system of experiment [9] is MOLT-4.
Experiment [10] relates to Malme-3M.
The test system of experiment [11] is NCI-H23.
Experiment [12] deals with NCI-H460.
For experiment [13], the system named is SK-MEL-2.
The test system of experiment [14] is SK-OV-3.
Experiment [15] relates to SNB-19.
The test system of experiment [16] is SNB-75.
Experiment [17] concerns SR.
Experiment [18] has as its system SW-620.
Experiment [19] has as its system UACC-62.
The test system of experiment [20] is T47D.

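Test compounds were applied to cells in 96-well plates for 48 hours at 5 doses. GI50 marks 50% less growth.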 Activity calls are given as the source filed them. Rule as the data show it: active = GI50 up to about 1.1 µM and inactive = higher.

With `CCCCCCCCCCCC(=O)c1c(O)cccc1O`, the GI50 is 18 µM (inactive) in experiment [1]; 23.4 µM (inactive) in [2]; 18.9 µM (inactive) in experiment [3]; 19.1 µM (inactive) in experiment [4]; 19.7 µM (inactive) in experiment [5]; 18.6 µM in [6]. Moreover, the GI50 in experiment [7] was 18.1 µM (inactive); in [8], 18.6 µM (inactive); in experiment [9], 20.4 µM (inactive); in experiment [10], 14.6 µM (inactive); in experiment [11], 17.6 µM (inactive); in experiment [12], 21.7 µM (inactive). The GI50 in experiment [13] was 15.4 µM (inactive); in experiment [14], 30.8 µM (inactive); in [15] it was 16.5 µM (inactive); in experiment [16], 16.8 µM (inactive); in experiment [17], 21 µM (inactive); in experiment [18], 19.1 µM (inactive). In addition, in [19], the GI50 is 19.6 µM (inactive).

`Oc1cc2cc(-c3ccccc3)[nH]c2c2ccccc12`: the GI50 was 30.1 µM (inactive) in experiment [1]; 18.5 µM (inactive) in experiment [2]; 0.592 µM (active) in experiment [3]; > 48.9 µM (inactive) in experiment [4]; 49.5 µM (inactive) in [5]; 27.1 µM in experiment [6]. The GI50 in experiment [7] is 23.8 µM (inactive); in experiment [8], 20.3 µM (inactive); in [9], 39.9 µM (inactive); in [10], 19.9 µM (inactive); in experiment [11], 15 µM (inactive); in experiment [12] it was 24 µM (inactive). The GI50 in [13] is 20.3 µM (inactive); in experiment [14] it was > 77.8 µM (inactive); in experiment [15] it was 21.7 µM (inactive); in [16], 33 µM (inactive); in [17], > 57 µM (inactive); in experiment [18], 34.4 µM (inactive). The GI50 in experiment [19] is 15.2 µM (inactive).

As to `CC(C)(C)C1CCC2(CC1)CCN(CCCN1CCOCC1)CC2`, the GI50 in [1] is > 49.9 µM (inactive); in [2], > 34.7 µM (inactive); in [3] it was 19.3 µM (inactive); in experiment [4] it was > 96.4 µM (inactive); in [5], 16.9 µM (inactive); in experiment [6], 22.3 µM. Further, the GI50 is 17.7 µM (inactive) in experiment [7]; 12.2 µM (inactive) in [8]; 24.5 µM (inactive) in experiment [9]; 18.5 µM (inactive) in [10]; 52.1 µM (inactive) in experiment [11]; 39.7 µM (inactive) in [12]. Besides, the GI50 is 20 µM (inactive) in experiment [13]; > 100 µM (inactive) in [14]; > 71.4 µM (inactive) in experiment [15]; 24.8 µM (inactive) in experiment [16]; 27.1 µM (inactive) in experiment [17]; > 42.8 µM (inactive) in [18]. For the same molecule, the GI50 is 42.9 µM (inactive) in experiment [20] and 8.91 µM (inactive) in experiment [19].

For `COc1nc(OC)c2c(=O)oc(-c3ccccc3)cc2n1`, the GI50 is > 100 µM (inactive) in experiment [1]; > 100 µM (inactive) in experiment [2]; > 100 µM (inactive) in experiment [3]; > 100 µM (inactive) in experiment [4]; > 100 µM (inactive) in experiment [5]; above 100 µM in experiment [6]. Moreover, the GI50 in experiment [7], in [9], in experiment [10], in experiment [11], in experiment [13] and in experiment [14] was > 100 µM (inactive) each time. In addition, the GI50 in [15] is > 100 µM (inactive); in [16], 53.5 µM (inactive); in [17], > 100 µM (inactive); in experiment [18], > 100 µM (inactive); in experiment [19] it was > 100 µM (inactive).

With `CCOC(=O)C1=C(C)NC(=O)NC1c1ccc(OC)cc1OC` (stereo not drawn), the GI50 in experiment [1] is > 100 µM (inactive); in [2] it was > 100 µM (inactive); in [3], > 100 µM (inactive); in [4], > 100 µM (inactive); in experiment [5], > 100 µM (inactive); in experiment [6], above 100 µM. Besides, the GI50 in [7], in experiment [8], in experiment [9], in experiment [10], in experiment [11] and in [12] was > 100 µM (inactive) throughout. For the same molecule, the GI50 in experiment [13], in experiment [14], in [15], in experiment [16], in [17] and in experiment [18] was > 100 µM (inactive) each time. For the same molecule, in experiment [19], the GI50 was > 100 µM (inactive).

Regarding `COc1cc(NS(=O)(=O)c2ccc(C)cc2)c2nccnc2c1`, the GI50 in [1] was 24 µM (inactive); in [2], 37.6 µM (inactive); in experiment [3], 23.6 µM (inactive); in experiment [4], 39.8 µM (inactive); in [5], 47.6 µM (inactive); in [6] it was 17.7 µM. Besides, the GI50 in experiment [7] is 35.2 µM (inactive); in experiment [8] it was 17 µM (inactive); in [9] it was 12.4 µM (inactive); in experiment [10] it was 37.2 µM (inactive); in [11] it was 34.4 µM (inactive); in experiment [12], 13 µM (inactive). Also, the GI50 in experiment [13] is 16.6 µM (inactive); in experiment [14], 84.9 µM (inactive); in experiment [15] it was 29.8 µM (inactive); in experiment [16], 24.3 µM (inactive); in [17], 16.7 µM (inactive); in experiment [18], 37.8 µM (inactive). Besides, the GI50 in experiment [19] is 14.8 µM (inactive).

With `CCOC(=O)C1=C(Nc2cccc3ccccc23)OCC1=O`, the GI50 in [1], in [2], in [3], in experiment [4], in [5] and in experiment [7] was > 100 µM (inactive) each time. The GI50 in experiment [8], in experiment [9], in experiment [10], in experiment [11], in experiment [12] and in experiment [13] was > 100 µM (inactive) throughout. For the same molecule, the GI50 in [14], in experiment [15], in experiment [16], in experiment [17], in experiment [18] and in experiment [19] was > 100 µM (inactive) in each case.

Take `Cc1ccc(S(=O)(=O)N/N=C(\c2nc3ccc(Cl)cc3nc2O)C(O)c2cccc([N+](=O)[O-])c2)cc1` (stereo not drawn): the GI50 in experiment [1] is > 100 µM (inactive); in experiment [2] it was > 100 µM (inactive); in experiment [3] it was > 100 µM (inactive); in [4], > 100 µM (inactive); in experiment [5] it was > 100 µM (inactive); in experiment [6] it was above 100 µM. Moreover, the GI50 in experiment [7], in experiment [8], in experiment [9], in experiment [10], in experiment [11] and in experiment [12] was > 100 µM (inactive) in each case. Further, the GI50 in experiment [13], in experiment [14], in experiment [15], in experiment [16], in experiment [17] and in experiment [18] was > 100 µM (inactive) each time. For the same molecule, the GI50 in [19] was > 100 µM (inactive).

`O=C1C=CC(=O)c2nc3c(cc21)CCC3`: the GI50 in experiment [1] is 87.3 µM (inactive); in experiment [2] it was 17 µM (inactive); in experiment [3], 20.3 µM (inactive); in experiment [5], > 100 µM (inactive); in experiment [7], 19.5 µM (inactive); in experiment [8], 16.6 µM (inactive). Besides, the GI50 was 11.6 µM (inactive) in [9]; 17.5 µM (inactive) in experiment [10]; 25 µM (inactive) in experiment [11]; 32.7 µM (inactive) in experiment [12]; > 100 µM (inactive) in [15]; 67.5 µM (inactive) in experiment [16]. Moreover, the values for the GI50 in experiment [17], in experiment [18] and in [19] were 5.92 µM (inactive), 16.6 µM (inactive) and 18.6 µM (inactive), respectively.

For the molecule `CNCCCNc1c2ccccc2nc2cccc([N+](=O)[O-])c12`, the GI50 in [1] was 0.00187 µM (active); in [2], 0.00753 µM (active); in experiment [3] it was 0.0152 µM (active); in experiment [4], 0.00809 µM (active); in [5], 0.00445 µM (active); in experiment [6], 0.00957 µM. Moreover, the GI50 was 0.00183 µM (active) in [7]; 0.00433 µM (active) in experiment [8]; 0.00243 µM (active) in [9]; 0.0043 µM (active) in [10]; 0.00193 µM (active) in experiment [11]; 0.00047 µM (active) in experiment [12]. In addition, the GI50 is 0.00332 µM (active) in [13]; 0.0103 µM (active) in experiment [14]; 0.00769 µM (active) in experiment [15]; 0.00438 µM (active) in experiment [16]; 0.00321 µM (active) in experiment [18]; 0.00229 µM (active) in experiment [20]. The GI50 in experiment [19] is 0.00468 µM (active).

`COc1cc(/C=C\c2ccc(Br)cc2)cc(OC)c1OC`: the GI50 in experiment [1] was 0.000589 µM (active); in [2], 0.01 µM (active); in [3] it was 0.00332 µM (active); in experiment [4], 0.00385 µM (active); in experiment [5], 0.0155 µM (active); in experiment [6], 0.00333 µM. Moreover, the GI50 in experiment [7] is 0.01 µM (active); in experiment [8] it was 0.000312 µM (active); in experiment [9] it was 0.000662 µM (active); in experiment [10] it was 0.0024 µM (active); in experiment [11], 0.000904 µM (active); in experiment [12], 0.01 µM (active). The concentration for 50% growth inhibition (GI50) in experiment [13] is 0.00794 µM (active); in experiment [14], 58.2 µM (inactive); in experiment [15], 0.0057 µM (active); in [16], 0.000422 µM (active); in experiment [17], 0.01 µM (active); in experiment [18], 0.000382 µM (active). Also, the GI50 in experiment [19] was 0.000404 µM (active).

The values above are taken from ChEMBL document CHEMBL1201862, “PubChem BioAssay data set” (2004).
